Laboratory results taken from BindingDB's records for patent US10155765 (Merck Sharp & Dohme, 2018).

Target: T1, Interleukin-1 receptor-associated kinase 4 (Homo sapiens, UniProt Q9NWZ3)
T1 sequence (Q9NWZ3 whole entry): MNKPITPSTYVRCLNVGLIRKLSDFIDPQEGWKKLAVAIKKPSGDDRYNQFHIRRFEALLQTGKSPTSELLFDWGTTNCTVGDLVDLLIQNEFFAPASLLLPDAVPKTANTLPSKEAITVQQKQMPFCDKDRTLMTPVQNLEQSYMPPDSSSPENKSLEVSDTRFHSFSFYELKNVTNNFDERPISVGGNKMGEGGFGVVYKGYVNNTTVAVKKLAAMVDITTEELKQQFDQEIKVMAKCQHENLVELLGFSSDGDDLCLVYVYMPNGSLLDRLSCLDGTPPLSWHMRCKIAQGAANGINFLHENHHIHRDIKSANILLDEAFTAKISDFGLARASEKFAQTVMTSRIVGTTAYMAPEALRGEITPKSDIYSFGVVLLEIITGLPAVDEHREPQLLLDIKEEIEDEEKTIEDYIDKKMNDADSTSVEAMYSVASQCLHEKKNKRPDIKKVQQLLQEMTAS
Assay: IRAK4 Kinase Assay
Protocol: The kinase activity of IRAK4 is determined by its ability to catalyze the phosphorylation of a fluorescent polypeptide substrate. The extent of phosphorylation is measured using the IMAP technology (Molecular Devices) where the phosphorylated fluorescent substrate binds to the large M(III)-based nanoparticles which reduces the rotational speed of the substrate and thus increases its fluorescent polarization (FP).20 μL reaction mixture contains 10 mM TriHCl, pH 7.2, 0.5 nM GST tagged IRAK4 (SignalChem), 100 nM fluorescent peptide substrate (RP7030, Molecular Devices), 100 μM ATP, 1 mM DDT, 1 mM MgCl2, and 0.01% Tween 20. The reaction is initiated by the addition of ATP. After incubation for 30 minutes at 25° C., 60 μL of Progressive IMAP Reagent (Molecular Devices) is added to stop the reaction. Change in RP7030's FP is determined by a FP reader (Analyst HT, LJL BioSystems).

IC50 [nM]	SMILES
310	NC(=O)c1c(NC(=O)c2cnn3ccc(N4CCNCC4)nc23)cnn1-c1ccncc1 [US10155765, Example 35]
370	CSc1ncc2ccc(C(=O)Nc3cn(C)nc3C(N)=O)n2n1 [US10155765, Example 57]
